Test results: ChEMBL document CHEMBL4364281, “Design of wogonin-inspired selective cyclin-dependent kinase 9 (CDK9) inhibitors with potent in vitro and in vivo antitumor activity” (Eur J Med Chem, 2019)
Converted amounts (≈) assume the structure as drawn. The source made the active and inactive calls. No cut-off for these calls is given here.

Key:
[1] = system: HT-29; assay: Antiproliferative activity against human HT-29 cells assessed as reduction in cell viability after 72 hrs by MTT assay; assay type: functional, cell-based; details: HT-29, 72 h
[2] = system: MV4-11; assay: Induction of apoptosis in human MV4-11 cells assessed as late apoptotic cells at 1.25 uM after 24 hrs by Annexin-V/propidium iodide staining based flow cytometric method (reference value: 0.07%); assay type: functional
[3] = system: MV4-11; assay: Cell cycle arrest in human MV4-11 cells assessed as accumulation at G1 phase at 1.25 uM after 24 hrs by propidium iodide staining based flow cytometry (reference value: 41.20%); assay type: functional
[4] = molecular target: CDK2/Cyclin A2 (Homo sapiens, UniProt P24941)
Description: Inhibition of human CDK2/cyclin-A2 using H1 histone as substrate after 2 hrs by [gamma-33P]-ATP assay

[5] = system: SW480; assay: Antiproliferative activity against human SW480 cells assessed as reduction in cell viability after 72 hrs by MTT assay; assay type: functional, cell-based; details: SW480, 72 h
[6] = molecular target: CDK9/cyclin T1 (Homo sapiens, UniProt P50750)
Sequence of CDK9/cyclin T1 (O60563 whole entry): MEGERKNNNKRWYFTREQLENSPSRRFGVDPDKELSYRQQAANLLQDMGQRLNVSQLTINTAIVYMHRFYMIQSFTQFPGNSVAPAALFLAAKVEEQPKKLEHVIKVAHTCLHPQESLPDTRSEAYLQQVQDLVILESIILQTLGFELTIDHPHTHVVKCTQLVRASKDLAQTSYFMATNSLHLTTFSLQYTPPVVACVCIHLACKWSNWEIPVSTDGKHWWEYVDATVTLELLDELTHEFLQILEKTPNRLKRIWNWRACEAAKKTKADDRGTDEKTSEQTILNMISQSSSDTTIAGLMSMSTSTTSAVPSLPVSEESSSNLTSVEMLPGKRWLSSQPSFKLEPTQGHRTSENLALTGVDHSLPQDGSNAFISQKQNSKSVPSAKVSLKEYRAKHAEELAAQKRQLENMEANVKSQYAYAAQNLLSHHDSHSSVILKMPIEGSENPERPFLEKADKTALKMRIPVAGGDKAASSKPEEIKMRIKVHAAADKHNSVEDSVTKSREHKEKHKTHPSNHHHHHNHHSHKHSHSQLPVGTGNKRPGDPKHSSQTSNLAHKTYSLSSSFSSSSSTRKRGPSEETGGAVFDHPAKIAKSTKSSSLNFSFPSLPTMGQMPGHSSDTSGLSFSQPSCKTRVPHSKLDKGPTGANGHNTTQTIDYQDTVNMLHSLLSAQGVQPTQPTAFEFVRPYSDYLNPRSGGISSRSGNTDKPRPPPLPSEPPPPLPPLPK
Sequence of CDK9/cyclin T1 (P50750 whole entry): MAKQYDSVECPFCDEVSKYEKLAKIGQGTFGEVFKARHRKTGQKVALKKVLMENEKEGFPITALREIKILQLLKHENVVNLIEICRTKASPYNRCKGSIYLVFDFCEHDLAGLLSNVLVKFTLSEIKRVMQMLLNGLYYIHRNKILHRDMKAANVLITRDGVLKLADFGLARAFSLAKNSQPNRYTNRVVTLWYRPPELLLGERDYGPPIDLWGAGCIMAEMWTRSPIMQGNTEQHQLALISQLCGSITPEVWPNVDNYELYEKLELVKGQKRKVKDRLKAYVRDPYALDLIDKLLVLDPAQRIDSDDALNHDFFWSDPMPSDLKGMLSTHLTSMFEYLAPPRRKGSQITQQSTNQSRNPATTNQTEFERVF

[7] = system: MV4-11; assay: Cell cycle arrest in human MV4-11 cells assessed as accumulation at S phase at 1.25 uM after 24 hrs propidium iodide staining based flow cytometry (reference value: 26.06%); assay type: functional
[8] = system: MV4-11; assay: Induction of apoptosis in human MV4-11 cells assessed as necrotic cells at 0.25 uM after 24 hrs by Annexin-V/propidium iodide staining based flow cytometric method (reference value: 2.64%); assay type: functional
[9] = Toxicity in BALB/c mouse assessed as effect on body weight at 15 to 45 mg/kg, iv administered every other day for 21 days; assay type: organism-based; details: in vivo, 504 h
[10] = physchem
Description: Intrinsic solubility of compound by potentiometric titration assay

[11] = system: MV4-11; assay: Induction of apoptosis in human MV4-11 cells assessed as increase in cleaved PARP level after 24 hrs by Western blot analysis; assay type: functional, cell-based
[12] = system: MV4-11; assay: Induction of apoptosis in human MV4-11 cells assessed as viable cells at 0.25 uM after 24 hrs by Annexin-V/propidium iodide staining based flow cytometric method (reference value: 96.94%); assay type: functional; details: MV4-11, 24 h, read-out: Activity
[13] = system: MV4-11; assay: Cell cycle arrest in human MV4-11 cells assessed as accumulation at S phase at 0.25 uM after 24 hrs propidium iodide staining based flow cytometry (reference value: 26.06%); assay type: functional
[14] = system: MV4-11; assay: Induction of apoptosis in human MV4-11 cells assessed as effect on BCL-2 expression after 4 hrs by Western blot analysis; assay type: functional, cell-based
[15] = physchem; details: buffer, pH 7.4
Description: Hydrophobicity, log D of compound at pH 7.4

[16] = system: HepG2; assay: cells; details: Homo sapiens, HepG2, 72 h
Description: Antiproliferative activity against human HepG2 cells assessed as reduction in cell viability after 72 hrs by MTT assay

[17] = molecular target: Cyclin-dependent kinase 9 (Homo sapiens) (UniProt P50750); assay: Inhibition of CDK9 in human MV4-11 cells assessed as inhibition of RNA polymerase 2 phosphorylation at S2 residue after 4 hrs by Western blot analysis; assay type: cell-based
Sequence of Cyclin-dependent kinase 9 (Homo sapiens) (P50750 whole entry): as above

[18] = system: MV4-11; assay: Induction of apoptosis in human MV4-11 cells assessed as early apoptotic cells at 1.25 uM after 24 hrs by Annexin-V/propidium iodide staining based flow cytometric method (reference value: 0.36%); assay type: functional
[19] = system: MV4-11; assay: Cell cycle arrest in human MV4-11 cells assessed as accumulation at S phase at 0.05 uM after 24 hrs propidium iodide staining based flow cytometry (reference value: 26.06%); assay type: functional
[20] = system: MV4-11; assay: Induction of apoptosis in human MV4-11 cells assessed as decrease in MCL-1 expression after 4 hrs by Western blot analysis; assay type: functional, cell-based
[21] = system: MV4-11; assay: Induction of apoptosis in human MV4-11 cells assessed as early apoptotic cells at 0.25 uM after 24 hrs by Annexin-V/propidium iodide staining based flow cytometric method (reference value: 0.36%); assay type: functional
[22] = system: BT-549; assay: Antiproliferative activity against human BT549 cells assessed as reduction in cell viability after 72 hrs by MTT assay; assay type: functional, cell-based; details: BT-549, 72 h
[23] = system: MV4-11; assay: Induction of apoptosis in human MV4-11 cells assessed as increase in caspase-3 level after 24 hrs by Western blot analysis; assay type: functional, cell-based
[24] = system: THP-1; assay: Antiproliferative activity against human THP1 cells assessed as reduction in cell viability after 72 hrs by MTT assay; assay type: functional, cell-based; details: THP-1, 72 h
[25] = physchem; details: methanesulfonic acid buffer, pH 4.5
Description: Solubility of compound in methanesulfonic acid buffer at pH 4.5

[26] = system: MV4-11; assay: Induction of apoptosis in human MV4-11 cells assessed as late apoptotic cells at 0.25 uM after 24 hrs by Annexin-V/propidium iodide staining based flow cytometric method (reference value: 0.07%); assay type: functional
[27] = system: MV4-11; assay: Cell cycle arrest in human MV4-11 cells assessed as accumulation at G2 phase at 1.25 uM after 24 hrs propidium iodide staining based flow cytometry (reference value: 22.73%); assay type: functional
[28] = system: MV4-11; assay: Cell cycle arrest in human MV4-11 cells assessed as accumulation at G1 phase at 0.05 uM after 24 hrs by propidium iodide staining based flow cytometry (reference value: 41.20%); assay type: functional
[29] = Toxicity in BALB/c mouse assessed as mortality at 15 to 45 mg/kg, iv administered every other day for 21 days; assay type: organism-based; details: in vivo, 504 h
[30] = system: MV4-11; assay: Antitumor activity against human MV4-11 cells xenografted in BALB/c mouse assessed as tumour growth inhibition at 15 mg/kg, iv administered every other day for 21 days relative to control; assay type: functional; details: MV4-11, iv, 504 h, read-out: TGI
[31] = system: HeLa; assay: Antiproliferative activity against human HeLa cells assessed as reduction in cell viability after 72 hrs by MTT assay; assay type: functional, cell-based
[32] = system: HEK293; assay: Cytotoxicity against human HEK293 cells assessed as reduction in cell viability after 72 hrs by MTT assay; assay type: cell-based; details: HEK293, 72 h
[33] = Antiproliferative activity against human BGC803 cells assessed as reduction in cell viability after 72 hrs by MTT assay; assay type: functional, cell-based; details: BGC803, 72 h
[34] = system: A549; assay: cells; details: Homo sapiens, A549, 72 h
Description: Antiproliferative activity against human A549 cells assessed as reduction in cell viability after 72 hrs by MTT assay

[35] = system: MV4-11; assay: Induction of apoptosis in human MV4-11 cells assessed as necrotic cells at 0.05 uM after 24 hrs by Annexin-V/propidium iodide staining based flow cytometric method (reference value: 2.64%); assay type: functional
[36] = system: MV4-11; assay: Induction of apoptosis in human MV4-11 cells by Annexin-V/propidium iodide staining based flow cytometric method; assay type: functional, cell-based
[37] = system: MV4-11; assay: Antitumor activity against human MV4-11 cells xenografted in BALB/c mouse assessed as tumour growth inhibition at 30 mg/kg, iv administered every other day for 21 days relative to control; assay type: functional; details: MV4-11, iv, 504 h, read-out: TGI
[38] = system: MV4-11; assay: Induction of apoptosis in human MV4-11 cells assessed as late apoptotic cells at 0.05 uM after 24 hrs by Annexin-V/propidium iodide staining based flow cytometric method (reference value: 0.07%); assay type: functional
[39] = system: MV4-11; assay: Induction of apoptosis in human MV4-11 cells assessed as necrotic cells at 1.25 uM after 24 hrs by Annexin-V/propidium iodide staining based flow cytometric method (reference value: 2.64%); assay type: functional
[40] = system: HCT-116; assay: cells; details: Homo sapiens, HCT-116, 72 h
Description: Antiproliferative activity against human HCT116 cells assessed as reduction in cell viability after 72 hrs by MTT assay

Question: Which IC50 [1] does the source give for `COc1cc(O)c2c(=O)cc(-c3ccc(N4CCN(C)CC4)cc3)oc2c1Oc1c(C)n[nH]c1C` here?
Answer: 1800 nM

Question: And the Activity [2]?
Answer: 9.05%

Question: And the Activity [3]?
Answer: 62.77%

Question: And the IC50 [4]?
Answer: 913 nM

Question: What about the IC50 [5] of the same molecule?
Answer: 1860 nM

Question: And the IC50 [6]?
Answer: 19.9 nM

Question: What about the Activity [7] of the same molecule?
Answer: 28.21%

Question: What about the Activity [8] of the same molecule?
Answer: 7.72%

Question: And the Activity [9]?
Answer: Non-Toxic

Question: And the solubility [10]?
Answer: 28 µg/mL (≈ 0.0588 mM)

Question: And the Activity [11]?
Answer: Dose-dependent effect

Question: And the viability at 0.25 µM [12]?
Answer: 63.7%

Question: What about the Activity [13] of the same molecule?
Answer: 30.91%

Question: What about the Activity [14] of the same molecule?
Answer: inactive

Question: What about the logD [15] of the same molecule?
Answer: 2.01

Question: And the IC50 [16]?
Answer: 2670 nM

Question: And the inhibition [17]?
Answer: Dose-dependent effect

Question: What about the Activity [18] of the same molecule?
Answer: 26.43%

Question: And the Activity [19]?
Answer: 33.91%

Question: And the Activity [20]?
Answer: Dose-dependent effect

Question: What about the Activity [21] of the same molecule?
Answer: 21.25%

Question: And the IC50 [22]?
Answer: 1850 nM

Question: And the Activity [23]?
Answer: Dose-dependent effect

Question: What about the IC50 [24] of the same molecule?
Answer: 790 nM

Question: And the solubility [25]?
Answer: 4540 µg/mL (≈ 9.53 mM)

Question: What about the Activity [26] of the same molecule?
Answer: 7.29%

Question: And the Activity [27]?
Answer: 9.01%

Question: And the Activity [28]?
Answer: 48.27%

Question: What about the Activity [29] of the same molecule?
Answer: Non-Toxic

Question: What about the inhibition in vivo at 15 mg/kg [30] of the same molecule?
Answer: 22.9%

Question: What about the IC50 [31] of the same molecule?
Answer: 2320 nM

Question: And the IC50 [32]?
Answer: 22100 nM

Question: And the IC50 [33]?
Answer: 3120 nM

Question: And the IC50 [34]?
Answer: 1810 nM

Question: And the Activity [35]?
Answer: 7.27%

Question: What about the Activity [36] of the same molecule?
Answer: Dose-dependent effect

Question: And the inhibition in vivo at 30 mg/kg [37]?
Answer: 42.6%

Question: What about the Activity [38] of the same molecule?
Answer: 5.53%

Question: What about the Activity [39] of the same molecule?
Answer: 6.46%

Question: And the IC50 [40]?
Answer: 390 nM
